Where a SMILES comes first, the peptide text is derived from it.

The test addresses T1, Interleukin-23 receptor (Homo sapiens, UniProt Q5VWK5).
T1 sequence (Q5VWK5 whole entry): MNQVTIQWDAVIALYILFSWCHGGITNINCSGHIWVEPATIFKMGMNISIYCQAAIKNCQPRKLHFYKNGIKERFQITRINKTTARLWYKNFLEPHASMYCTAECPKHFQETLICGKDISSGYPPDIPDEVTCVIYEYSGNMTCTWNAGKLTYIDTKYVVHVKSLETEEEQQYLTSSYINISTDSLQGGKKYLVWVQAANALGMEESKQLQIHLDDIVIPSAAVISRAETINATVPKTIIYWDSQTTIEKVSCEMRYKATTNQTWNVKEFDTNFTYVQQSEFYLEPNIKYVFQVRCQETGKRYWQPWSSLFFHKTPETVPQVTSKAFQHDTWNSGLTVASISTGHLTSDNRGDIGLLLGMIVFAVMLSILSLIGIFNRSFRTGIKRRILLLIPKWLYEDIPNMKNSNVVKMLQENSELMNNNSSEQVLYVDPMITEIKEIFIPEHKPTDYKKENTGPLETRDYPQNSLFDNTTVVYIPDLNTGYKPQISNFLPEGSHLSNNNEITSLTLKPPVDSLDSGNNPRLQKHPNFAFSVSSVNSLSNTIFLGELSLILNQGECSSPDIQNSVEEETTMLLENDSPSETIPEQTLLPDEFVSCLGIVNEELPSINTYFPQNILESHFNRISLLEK
The test can be described thus: Inhibition of interleukin-23 binding to human interleukin-23 receptor incubated for 2 hrs by competitive binding ELISA. (In an ELISA, binding on a coated surface is turned into a signal by an enzyme label.)
Broadly, the IC50 is the concentration needed to halve the response being measured. As to `CC(=O)N[C@@H](CS)C(=O)N[C@@H](CCC(N)=O)C(=O)N[C@H](C(=O)N[C@@H](Cc1c[nH]c2ccccc12)C(=O)N[C@@H](CCC(N)=O)C(=O)N[C@@H](CS)C(=O)N[C@@H](Cc1ccc(O)cc1)C(=O)N[C@@H](Cc1c[nH]c2ccccc12)C(=O)N(C)[C@@H](CCC(=O)O)C(=O)N[C@@H](CC(N)=O)C(=O)NCC(=O)NCCOCC(=O)N[C@H](CCCCN)C(=O)O)[C@@H](C)O`, the IC50 is > 1 µM. As to `CC(C)[C@H](NC(=O)[C@H](Cc1c[nH]c2ccccc12)NC(=O)[C@H](CC(=O)O)NC(=O)[C@H](C)NC(=O)[C@@H](N)CS)C(=O)N[C@@H](CS)C(=O)N[C@@H](Cc1ccc(O)cc1)C(=O)N[C@@H](Cc1cccc2ccccc12)C(=O)N[C@@H](Cc1cnc[nH]1)C(=O)N[C@H](C(=O)N[C@@H](Cc1ccccc1)C(=O)O)[C@@H](C)O`, the IC50 was > 1 µM. The figure for `CC(=O)N[C@@H](CS)C(=O)N[C@@H](C)C(=O)N[C@@H](CC(=O)O)C(=O)N[C@@H](Cc1c[nH]c2ccccc12)C(=O)N[C@H](C(=O)N[C@@H](CS)C(=O)N[C@@H](Cc1ccc(O)cc1)C(=O)N[C@@H](Cc1c[nH]c2ccccc12)C(=O)N[C@@H](Cc1cnc[nH]1)C(=O)N[C@H](C(=O)N[C@@H](Cc1ccccc1)C(=O)NCC(=O)NCCOCCC(=O)N[C@H](CCCNC(=N)N)C(=O)O)[C@@H](C)O)C(C)C` is < 0.5 µM. Turning to `CC(=O)N[C@@H](CS)C(=O)N[C@H](C(=O)N[C@H](C(=O)N[C@@H](Cc1c[nH]c2ccccc12)C(=O)N[C@@H](CCC(=O)O)C(=O)N[C@@H](CS)C(=O)N[C@@H](Cc1ccc(O)cc1)C(=O)N[C@@H](Cc1c[nH]c2ccccc12)C(=O)N[C@@H](Cc1cnc[nH]1)C(=O)N[C@@H](CCC(=O)O)C(=O)N[C@@H](Cc1ccccc1)C(=O)NCC(N)=O)[C@@H](C)O)[C@@H](C)O` (Ac-CTTWECYWHEFG-NH2), the IC50 was < 0.5 µM. The figure for `CC(=O)N[C@@H](CS)C(=O)N[C@@H](CCC(N)=O)C(=O)N[C@H](C(=O)N[C@@H](Cc1c[nH]c2ccccc12)C(=O)N[C@@H](CCC(N)=O)C(=O)N[C@@H](CS)C(=O)N[C@@H](Cc1ccc(O)cc1)C(=O)N[C@@H](Cc1c[nH]c2ccccc12)C(=O)N[C@H](CCCNC(=N)N)C(=O)N[C@@H](CCC(=O)O)C(=O)N[C@@H](CC(N)=O)C(=O)NCC(=O)NCCOCC(=O)N[C@H](CCCCN)C(N)=O)[C@@H](C)O` is > 1 µM. For the compound `C[C@@H](O)[C@H](NC(=O)[C@@H](NC(=O)[C@@H](N)CS)[C@@H](C)O)C(=O)N[C@@H](Cc1c[nH]c2ccccc12)C(=O)N[C@@H](CCCCN)C(=O)N[C@@H](CS)C(=O)N[C@@H](Cc1ccc(O)cc1)C(=O)N[C@@H](Cc1c[nH]c2ccccc12)C(=O)N[C@@H](Cc1cnc[nH]1)C(=O)N[C@@H](CCC(N)=O)C(=O)N[C@@H](Cc1ccc(O)cc1)C(=O)NCC(N)=O` (H-CTTWKCYWHQYG-NH2), the IC50 fell in the range of 0.5 to 1 µM. The figure for `NC(=O)CC[C@H](NC(=O)[C@@H](N)CS)C(=O)N[C@@H](CO)C(=O)N[C@@H](Cc1c[nH]c2ccccc12)C(=O)N[C@@H](CCC(=O)O)C(=O)N[C@@H](CS)C(=O)N[C@@H](Cc1ccc(O)cc1)C(=O)N[C@@H](Cc1c[nH]c2ccccc12)C(=O)N[C@@H](Cc1cnc[nH]1)C(=O)N[C@@H](Cc1ccc(O)cc1)C(=O)N[C@@H](Cc1ccc(O)cc1)C(=O)NCC(N)=O` (H-CQSWECYWHYYG-NH2) is > 1 µM; for `CSC[C@H](NC(=O)[C@H](CCC(N)=O)NC(=O)[C@H](Cc1c[nH]c2ccccc12)NC(=O)[C@@H](NC(=O)[C@H](CCCNC(=N)N)NC(=O)[C@H](C)NC(C)=O)[C@@H](C)O)C(=O)N[C@@H](Cc1ccc(O)cc1)C(=O)N[C@@H](Cc1c[nH]c2ccccc12)C(=O)N[C@@H](CCCNC(=N)N)C(=O)N[C@@H](CCCCN)C(=O)N[C@@H](Cc1ccccc1)C(=O)NCC(=O)NCCOCC(=O)N[C@H](CCCCN)C(N)=O` it is 7.57 µM; for `CC(=O)N[C@@H](CS)C(=O)N[C@@H](CCCCN)C(=O)N[C@H](C(=O)N[C@@H](Cc1c[nH]c2ccccc12)C(=O)N[C@@H](CCC(N)=O)C(=O)N[C@@H](CS)C(=O)N[C@@H](Cc1ccc(O)cc1)C(=O)N[C@@H](Cc1c[nH]c2ccccc12)C(=O)N[C@@H](CCCNC(=N)N)C(=O)N[C@H](C(=O)N[C@@H](Cc1ccccc1)C(=O)NCC(=O)NCCOCC(=O)N[C@H](CCCCN)C(N)=O)C(C)C)[C@@H](C)O` it is 0.04 µM. Take Ac-QTWQCYWRK(Ac)NG-NH2: the IC50 is < 0.5 µM. The result for `CC(=O)N[C@@H](C)C(=O)N[C@H](C(=O)N[C@@H](CC(=O)O)C(=O)N[C@@H](Cc1c[nH]c2ccccc12)C(=O)N[C@H](C(=O)N[C@H](C(=O)N[C@@H](Cc1ccc(O)cc1)C(=O)N[C@@H](Cc1c[nH]c2ccccc12)C(=O)N[C@@H](CCCNC(=N)N)C(=O)N[C@@H](CCCCN)C(=O)N[C@@H](Cc1ccccc1)C(=O)NCC(=O)NCCOCC(=O)N[C@H](CCCCN)C(N)=O)C(C)(C)S)C(C)C)C(C)(C)S` reads > 30 µM; that for `CC(C)[C@H](NC(=O)[C@H](Cc1cnc[nH]1)NC(=O)[C@H](Cc1c[nH]c2ccccc12)NC(=O)[C@H](Cc1ccc(O)cc1)NC(=O)[C@H](CS)NC(=O)[C@@H](NC(=O)[C@H](Cc1c[nH]c2ccccc12)NC(=O)[C@@H](NC(=O)[C@H](CCCNC(=N)N)NC(=O)[C@@H](N)CS)[C@@H](C)O)C(C)C)C(=O)N[C@@H](Cc1ccccc1)C(=O)NCC(N)=O` (H-CRTWVCYWHVFG-NH2), > 1 µM. The figure for `CC(=O)N[C@@H](CS)C(=O)N[C@@H](C)C(=O)N[C@@H](CC(=O)O)C(=O)N[C@@H](Cc1c[nH]c2ccccc12)C(=O)N[C@H](C(=O)N[C@@H](CS)C(=O)N[C@@H](Cc1ccc(O)cc1)C(=O)N[C@@H](Cc1c[nH]c2ccccc12)C(=O)N[C@@H](Cc1cnc[nH]1)C(=O)N[C@@H](CCCNC(=N)N)C(=O)N[C@@H](Cc1cnc[nH]1)C(=O)N[C@@H](C)C(=O)N[C@@H](CC(=O)O)C(=O)N[C@@H](CCCNC(=N)N)C(=O)N[C@H](C(=O)N[C@@H](CCCCN)C(N)=O)C(C)C)C(C)C` (Ac-CADWVCYWHRHADRVK-NH2) is < 0.5 µM. The result for `CC(=O)NCC(=O)N[C@H](CC(N)=O)C(=O)N[C@H](CCC(=O)O)C(=O)N[C@H](CC(C)C)C(=O)N[C@H](Cc1c[nH]c2ccccc12)C(=O)N[C@H](Cc1ccc(O)cc1)C(=O)N[C@H](CS)C(=O)N[C@H](CCC(N)=O)C(=O)N[C@H](Cc1c[nH]c2ccccc12)C(=O)N[C@@H](C(=O)N[C@H](CCC(N)=O)C(=O)N[C@H](CS)C(N)=O)[C@H](C)O` reads > 30 µM.

For `CC(=O)N[C@@H](CS)C(=O)N[C@@H](C)C(=O)N[C@@H](CC(=O)O)C(=O)N[C@@H](Cc1c[nH]c2ccccc12)C(=O)N[C@H](C(=O)N[C@@H](CS)C(=O)N[C@@H](Cc1ccc(O)cc1)C(=O)N[C@@H](Cc1c[nH]c2ccccc12)C(=O)N[C@@H](Cc1cnc[nH]1)C(=O)N[C@H](C(=O)N[C@@H](Cc1ccccc1)C(=O)NCC(=O)N1CC[C@H]1C(=O)N[C@H](CCCCN)C(=O)O)[C@@H](C)O)C(C)C`, the IC50 was < 0.5 µM.

As to `CC(C)[C@H](NC(=O)[C@H](Cc1cnc[nH]1)NC(=O)[C@H](Cc1c[nH]c2ccccc12)NC(=O)[C@H](Cc1ccc(O)cc1)NC(=O)[C@H](CS)NC(=O)[C@H](CCCNC(=N)N)NC(=O)[C@H](Cc1c[nH]c2ccccc12)NC(=O)[C@H](CC(=O)O)NC(=O)[C@H](CO)NC(=O)[C@@H](N)CS)C(=O)N[C@@H](Cc1ccccc1)C(=O)NCC(N)=O` (H-CSDWRCYWHVFG-NH2), the IC50 is > 1 µM.

Turning to `CC(=O)N[C@@H](CS)C(=O)N[C@@H](C)C(=O)N[C@@H](CC(=O)O)C(=O)N[C@@H](Cc1c[nH]c2ccccc12)C(=O)N[C@H](C(=O)N[C@@H](CS)C(=O)N[C@@H](Cc1ccc(O)cc1)C(=O)N[C@@H](Cc1c[nH]c2ccccc12)C(=O)N[C@@H](Cc1cnc[nH]1)C(=O)N[C@H](C(=O)N[C@@H](Cc1cnc[nH]1)C(=O)NCC(=O)N[C@@H](CCC(=O)O)C(=O)N[C@@H](CCCNC(=N)N)C(N)=O)[C@@H](C)O)C(C)C`, the IC50 is < 0.5 µM.

Compound `CC(=O)N[C@H]1CCSC[C@@H](C(=O)N[C@@H](Cc2ccc(Cl)c(Cl)c2)C(=O)N[C@@H](Cc2ccc3ccccc3c2)C(=O)NC(C)(C)C(=O)N[C@@H](CCC(=O)O)C(=O)N[C@@H](CC(N)=O)C(=O)NCC(N)=O)NC(=O)[C@H](CCC(N)=O)NC(=O)[C@H](Cc2c[nH]c3ccccc23)NC(=O)[C@H]([C@@H](C)O)NC(=O)[C@H](CCC(N)=O)NC1=O` registered an IC50 of 0.1 to 1 µM. As for `CC(=O)N[C@@H](CS)C(=O)N[C@@H](C)C(=O)N[C@@H](CC(=O)O)C(=O)N[C@@H](Cc1c[nH]c2ccccc12)C(=O)N[C@H](C(=O)N[C@@H](CS)C(=O)N[C@@H](Cc1ccc(O)cc1)C(=O)N[C@H](C(=O)N[C@@H](CCCN)C(=O)N[C@@H](CN)C(=O)N[C@@H](Cc1ccccc1)C(=O)NCC(=O)NCCOCC(=O)N[C@H](CCCCN)C(N)=O)C1CCC(c2ccccc2)CC1)C(C)C` (stereo not given in full), the IC50 was > 3 µM. The result for `CC(C)[C@H](NC(=O)[C@H](Cc1c[nH]c2ccccc12)NC(=O)[C@H](CC(=O)O)NC(=O)[C@H](C)NC(=O)[C@@H](N)CS)C(=O)N[C@@H](CS)C(=O)N[C@@H](Cc1ccc(O)cc1)C(=O)N[C@@H](Cc1c[nH]c2ccccc12)C(=O)N[C@@H](Cc1cnc[nH]1)C(=O)N[C@H](C(=O)N[C@@H](Cc1ccccc1)C(N)=O)[C@@H](C)O` reads > 1 µM.

The record behind these values is ChEMBL document CHEMBL4417631, “Oral peptide inhibitors of interleukin-23 receptor and their use to treat inflammatory bowel diseases” (2017).
